These results are taken from PMC4718634, “Murine GPRC6A Mediates Cellular Responses to L-Amino Acids, but Not Osteocalcin Variants” (PLoS ONE, 2016).

“Also recorded” adds a separate entry of the source. Read-outs that look alike come from different tables or passages of the source.

One assay concerns GPRC6A. The conditions noted are these: bind in the 7TM domain; ref [3], [4]; cited from earlier work. An excerpt:
GPRC6A is a class C G protein-coupled receptor (GPCR) that has been cloned from human, mouse and rat. The receptor was initially deorphanised by fusion of its large N-terminal domain to the heptahelical and C-terminal region of the related goldfish 5.24 receptor [1]. […] These ligands are thought to bind in the N-terminal domain of the receptor [2] in a manner analogous to the binding of L-glutamate to metabotropic glutamate receptors. Small molecules, ...

The test system of assay [1] is GLUTag cells. The conditions noted are these: endogenous; ref [17] (supplement list); cited from earlier work. An excerpt:
(§1) Supplement pone.0146846.s004.docx, table 1 | column: Functional assay

The target in the next assay is T1, mGPRC6A (mouse GPRC6A) (Mus musculus, UniProt Q8K4Z6).
T1 sequence (Q8K4Z6 21-928): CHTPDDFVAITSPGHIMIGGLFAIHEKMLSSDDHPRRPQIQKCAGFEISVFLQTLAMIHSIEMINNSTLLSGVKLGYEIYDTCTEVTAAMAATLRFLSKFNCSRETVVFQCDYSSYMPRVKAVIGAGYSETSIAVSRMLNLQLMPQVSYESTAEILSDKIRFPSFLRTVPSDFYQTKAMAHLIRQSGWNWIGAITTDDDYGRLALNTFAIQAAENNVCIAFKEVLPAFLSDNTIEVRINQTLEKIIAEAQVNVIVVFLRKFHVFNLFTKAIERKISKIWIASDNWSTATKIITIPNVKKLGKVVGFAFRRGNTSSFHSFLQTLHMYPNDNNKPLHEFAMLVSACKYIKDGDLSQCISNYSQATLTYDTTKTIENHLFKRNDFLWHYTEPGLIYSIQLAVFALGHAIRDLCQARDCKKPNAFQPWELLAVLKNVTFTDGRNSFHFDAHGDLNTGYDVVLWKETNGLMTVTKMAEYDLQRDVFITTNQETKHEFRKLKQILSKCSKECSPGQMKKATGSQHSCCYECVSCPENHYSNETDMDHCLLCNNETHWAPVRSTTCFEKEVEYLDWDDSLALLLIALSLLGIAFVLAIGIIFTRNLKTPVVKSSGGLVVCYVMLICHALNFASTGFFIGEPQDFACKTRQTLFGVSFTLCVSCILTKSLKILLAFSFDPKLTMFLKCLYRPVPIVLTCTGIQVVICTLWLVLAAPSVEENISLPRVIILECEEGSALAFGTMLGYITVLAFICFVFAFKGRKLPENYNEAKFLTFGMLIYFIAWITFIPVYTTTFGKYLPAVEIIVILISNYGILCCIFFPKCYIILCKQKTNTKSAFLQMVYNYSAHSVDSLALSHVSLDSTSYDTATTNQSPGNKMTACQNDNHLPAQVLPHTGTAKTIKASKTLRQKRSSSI
Nature of the assay: Inositol phosphate (IP-One HTRF) accumulation, FlpIn-TREx-HEK293-mGPRC6A cells. Format: cell-based. The conditions noted are these: NPS-2143 30 μM; Fig 1C. The method, then:
pcDNA 5/FRT/TO constructs were isogenically integrated into a FlpIn-TREx-HEK293 cell line (Life Technologies). FlpIn-TREx-HEK293-mGPRC6A and FlpIn-TREx-HEK293-hGPRC6A cells were then selected using 600 μg/ml hygromycin and 5 μg/ml blasticidin and grown in culture medium consisting of Dulbecco’s Modified Eagle Medium (DMEM), supplemented with 10% (v/v) foetal bovine serum (FBS) at 37°C in 5% CO2 and were sub-cultured in a 1:3 ratio every 3–4 days. Cells were cultured overnight in the presence of 1 μg/ml tetracycline to induce GPRC6A expression. […] 48 h after transfection, cells were selected using 3 μg/ml puromycin and grown as above.
Inositol phosphate (IPX) accumulation experiments were performed using the IP-One HTRF® assay kit (Cisbio, France). Briefly, 24h after transfection with G proteins (as above), 10^5 cells were seeded per well in PDL-coated, 96-well white plates and incubated overnight. Cells were then washed 2 x 2h at 37°C in HBSS buffer (pH 7.2) containing 20 mM HEPES, 3.5 mM NaHCO3, 1 mM CaCl2 and 0.1% (w/v) BSA. Test compounds were then prepared in the kit stimulation buffer containing 2 mM CaCl2; cells were then incubated with 70 μl of drugs for 30 min, after which 15 μl of both IP1-D2 and Ab-Cryp were added to the cells, followed by a 1 h incubation at RT. Plates were read using an Envision plate reader (Perkin Elmer), using an HTRF protocol. Results were calculated from the 665nm / 620nm HTRF ratio (Ratio = A665nm/A620nm x 10^4) and expressed as a percentage of the maximal response obtained.
(§2) Concentration-response data were analysed using a three or four parameter logistic function (Motulsky & Christopoulos, 2004) to generate estimates of agonist potency (LogEC50). Data for all HEK293 assays represent the mean ± SEM of at least three independent experiments (except cell impedance, n = 2). For GLP-1 release, the data represent mean ± SEM of three to five independent experiments (except for OCN, wash; n = 2). For insulin release assays, data represent the mean ± SEM of three independent experiments (except for islet studies; n = 2). Insulin release data were normalised to the response to vehicle in either low or high [glucose]. Statistical analysis for GLP-1 release data were performed by one-way ANOVA, followed by Sidak’s multiple comparisons test (treating wash / no wash datasets separately). Statistical analyses for insulin release data were performed by two-way ANOVA (with [glucose] and drug treatment as group variables), followed by Sidak’s multiple comparisons test. Where only high [glucose] groups were evaluated, statistical analysis was by one-way ANOVA followed by Sidak’s multiple comparisons test.
(In general: TR-FRET usually uses a lanthanide donor and a delayed reading to cut background.)

Assay [2] deals with GLUTag cells. Briefly: GLP-1 release from GLUTag cells. The conditions noted are these: NPS-2143 10 μM, 30 min pre-treatment; ^P < 0.05 vs L-ornithine alone; Fig 6A. Format: cell-based, murine. The procedure:
Intestinal L-cell model GLUTag cells were seeded in 24-well plates coated with Matrigel and incubated for 6 days in DMEM with 10% FBS, 100 U/ml penicillin, 100 μg/ml streptomycin at 37°C in 5% CO2 and grown for 4–5 days. Where indicated, cells were washed (1 or 2 x 1h) with Krebs-HEPES buffer (20 mM HEPES, 118 mM NaCl, 4.7 mM KCl, 1.2 mM MgSO4, 5 mM NaHCO3, 1.2 mM KH2PO4, 2.5 mM CaCl2, 5.5 mM glucose, 0.2% BSA (w/v), pH 7.2) containing vildagliptin (300 μM) prior to addition of test compounds in the same buffer. After 2 h incubation at 37°C in 5% CO2, the supernatant was recovered and centrifuged at 500 rpm for 5 min. Where used, NPS-2143 pre-treatment was for 30 min.
GLP-1 content in the cell supernatant was measured by ELISA (EGLP-35K, Millipore), according to manufacturer’s instructions after overnight incubation of 15 μl supernatant in 100 μl Krebs-HEPES buffer at 4°C. After 5 x washes, 200 μl of detection conjugate was added and incubated for 2 h at RT. After 3 x washes the reaction was developed with 200 μl of diluted substrate (1:200) for 20 min and terminated by addition of 50 μl stop solution. After 5 min, fluorescence was then measured using 355 nm excitation and 460 nm emission, transforming the obtained signal into pmol GLP-1/well/ml and corrected for GLUTag cell protein content as determined using the method of Bradford (1976).
as §2

The subject of another assay is MIN6 cells. Briefly: Insulin release from MIN6 cells. It is filed as cell-based, murine. As to conditions: NPS-2143 10 μM; ^^P < 0.01 vs L-ornithine alone; Fig 6B. The procedure: MIN6 or βTC-6 cells were seeded in 24-well plates at 170,000 cells per well in DMEM (containing 4.5g/L glucose, 10 mM HEPES, 100 U/ml penicillin, 100 μg/ml streptomycin and 15% de-complemented FBS) and incubated at 37°C / 5% CO2 for 72 h. Cells were then washed with 500 μl PBS and incubated in 500 μl deprivation media (DMEM with zero glucose, 10 mM HEPES, 1 mM Na-pyruvate, 100 U/ml penicillin, 100 μg/ml streptomycin, 15% de-complemented FBS) for 2 h at 37°C. Media was aspirated and after washing with 500 μl PBS, cells were treated with 250 μl of Krebs buffer (250 mM NaCl, 5.9 mM KCl, 1.2 mM MgCl2, 1.3 mM CaCl2, 25 mM HEPES, 0.1% BSA (w/v), and 2 mM or 16.7 mM glucose; pH 7.4) in the presence or absence of test compound. After incubation for 2 h at 37°C, the assay was terminated by placing the plates on ice and supernatants were transferred to a 96-well plate in preparation for insulin ELISA (Alpco) following manufacturer’s instructions. The cell monolayer was washed twice with 500 μl of PBS and then lysed using 250 μl of 1 N NaOH prior to protein measurement by the method of Bradford (1976).
as §2

The next assay has as its system PC-3 cells. As to conditions: endogenous; ref [18] (supplement list); cited from earlier work.
Source text: as §1

For the next assay, the system named is mC6A. The conditions noted are these: cited from earlier work.
Source text: as §1

For the compound `C[C@@H](NCc1cc2ccccc2[nH]1)c1cccc2ccccc12` [calindol], the “modulation of GPRC6A” value with GPRC6A is on record as “negative allosteric modulators”. Further, in the assay on GLUTag cells [1], the “antagonism, Ca^2+i” value is “antagonist” and the “antagonism, GLP-1 secretion” value was “antagonist”.
In the case of `CC(C)(Cc1ccc2ccccc2c1)NC[C@@H](O)COc1cccc(Cl)c1C#N` [NPS-2143], the “inhibition of L-ornithine-stimulated inositol phosphate accumulation” value on mGPRC6A (mouse GPRC6A) was “inositol phosphate accumulation in response to L-ornithine was sensitive to application of the GPRC6A antagonist, NPS-2143; also recorded: can be inhibited with the antagonist”. The “reversal of L-ornithine-stimulated GLP-1 release” value in the assay with GLUTag cells [2] is “fully reversed; also recorded: significantly reversed; also recorded: NPS-2143-sensitive”. For the same compound, the “reversal of L-ornithine-stimulated insulin secretion” value with MIN6 cells is recorded as “fully reversed”. For the same compound, in the assay on GPRC6A, the “modulation of GPRC6A” value was “negative allosteric modulators”.
Regarding `C[C@]12CC[C@H]3[C@@H](CCC4=CC(=O)CC[C@@]43C)[C@@H]1CC[C@@H]2O` [Testosterone], the pERK1/2 response result in the assay with PC-3 cells is on record as “pERK1/2 – response to Testosterone, L-Arg”. Moreover, in the assay with mC6A (ref [13] (supplement list)), the “IP-One HTRF response” value is on record as “No response”, the cAMP response result is on record as “no response” and the pERK response result is “No specific response”. In the assay with mC6A (ref [18] (supplement list)), the cAMP response result is on record as “cAMP – response to Testosterone, L-Arg pERK1/2 – response to Testosterone” and the pERK1/2 response entry is reported as “cAMP – response to Testosterone, L-Arg pERK1/2 – response to Testosterone”.
